The text below walks through data of patent publication US20070275953A1 (priority 2003, published 2007).

Molecules are shown by their SMILES. Where two headings read alike, the source gives them in different places.

What all share (type): cell-based
Experiment [1] concerns HIV-1 with WT (wild type) RT in TZM-bl cells. The experiment can be described thus: Anti-HIV assay on TZM-bl cell line, WT RT. The protocol: (§1) Wurzburg Jurkat T cells (subclone JR) were transfected with 10 μg of the circularly permuted infectious molecular clone HIVNL4-3 (Adachi et al., 1986. J. Virol, 59 (2), p 284-291). Two days later, co-cultivation with SupT1 cells (a human T-cell lymphoma cell line) was initiated to facilitate rapid production of progeny virions. Production of virus was measured by using the Innotest HIV Antigen mAb p24 kit (Innogenetics). At the peak of production cultures were harvested and filtered. The virus stocks were stored at −80° C. until used.
(§2) Anti-HIV activity and cytotoxicity of the compounds were tested on the TZM-b1 cell line. The TZM-b1 cell line (Wei et al. 2002. Antimicrob. Agents Chemother. Vol. 46, p 1896-1905) was received from the NIH AIDS Research and Reference Reagent Program. These cells were cultured in complete DMEM medium supplemented with 10% fetal bovine serum (FBS), and 1% Penicillin/Streptomycin. Exponentially growing cells were trypsinized, centrifuged and split twice weekly at 5 10^4 cells/ml.
(§3) The anti-HIV assay with TZM-b1 cells is essentially the same as described above with P4 cells. The main difference between the two cell lines is that the TZM-b1 cells express at their surface both the CD4 and CCR5 proteins, acting as receptor and co-receptor for HIV entry, respectively (Wei et al. 2002. Antimicrob. Agents Chemother. Vol. 46, p 1896-1905). This feature makes the cells very sensitive to infection by the virus. The TMZ-b1 cells were infected with equal amount of cell-free virus, corresponding to 10 ng of HIV p24 antigen. This amount is ten times lower than the amount used to infect the P4 cells.

Experiment [2] deals with HIV-1 mutant Cys181RT in TZM-bl cells. The experiment can be described thus: Anti-HIV assay on TZM-bl cells, Cys181RT mutant. Conditions: read-out: EC50 Cys181RT TZM-bl.
Description: (§4) In order to introduce mutation(s) at the level of the pol gene coding for the RT in the pNL4-3 plasmid containing the complete viral genome (Adachi et al., 1986. J. Virol., Vol. 59 p 284-291) we used the “Quick change mutagenesis kit” (Stratagene). The following mutations were separately introduced in pNL4-3: L100I, K103N, V108I, Y181C, Y188C, and the double mutations K103N/V108I. These mutations were chosen because of the resistance that they confer to existing NNRTI. The production procedure of the mutant viral stocks is identical to the one described above.
as §2, §3

Experiment [3] has as its system HIV-1 mutant Cys181RT in MT4 cells. The experiment can be described thus: Anti-HIV assay on MT4 cells, Cys181RT mutant.
Description: as §4
(§5) Anti-HIV activity of the compounds was tested on MT-4 cell line. The MT-4 cell line (Larder et al. 1989. Sciences, Vol. 243 p 1731) was received from the NIH AIDS Research and Reference Reagent Program. These cells were cultured in RPMI medium supplemented with 10% fetal bovine serum (FBS), and 1% Penicillin/Streptomycin. The cultures were split regularly to keep cells densities between 0.3 to 1.2 10^6 cells/ml.
(§6) The MT-4 cells rapidly die upon infection by HIV. In this system there is an inverse correlation between cells survival and the amount of viral replication.
(§7) Briefly, in the anti-HIV assay exponentially growing MT-4 cells were infected with HIV-1. 100 μl of infected MT-4 cells were seeded in 96-well plate at a concentration of 0.4 10^5 cells/ml, and 100 μl of the different drugs dilutions were added to the cells. After 4 days of incubation at 37° C., 5% CO2, cells survival was measured using MTS (3-(4-5-dimethylthiazol-2-yl)-5-(−(3-carboxymethoxyphenyl)-2-(4-sulfophenyl)-2H-tetrazolium) assays. This compound is reduced by viable cells in a colored soluble formazan salt.
(§8) The absorbance was measured on a Benchmark™ Microplate Reader (Biorad) (λ=490 nm) and compared with 12 cell control replicates (nor virus nor drug added) and 12 virus control wells (no drug added). Each assay was performed a minimum of three times. The 50% effective concentration (EC50) was calculated from each dose response curve using the CurveExpert 1.3 software.

Experiment [4] relates to HIV-1 mutant Ile100RT in TZM-bl cells. The experiment can be described thus: Anti-HIV assay on TZM-bl cells, Ile100RT mutant. Conditions: read-out: EC50 Ile100RT TZM-bl.
Description: as §4, §2, §3

Experiment [5] relates to HIV-1 mutant Ile100RT in MT4 cells. The experiment can be described thus: Anti-HIV assay on MT4 cells, Ile100RT mutant.
Description: as §4, §5, §6, §7, §8

Experiment [6] relates to HIV-1 mutant Asn103RT in TZM-bl cells. The experiment can be described thus: Anti-HIV assay on TZM-bl cells, Asn103RT mutant. Conditions: read-out: EC50 Asn103RT TZM-bl.
Description: as §4, §2, §3

Experiment [7] relates to HIV-1 mutant Asn103RT in MT4 cells. The experiment can be described thus: Anti-HIV assay on MT4 cells, Asn103RT mutant.
Description: as §4, §5, §6, §7, §8

Experiment [8] relates to HIV-1 mutant Ile108RT in TZM-bl cells. The experiment can be described thus: Anti-HIV assay on TZM-bl cells, Ile108RT mutant. To be noted: read-out: EC50 Ile108RT TZM-bl.
Description: as §4, §2, §3

The subject of experiment [9] is HIV-1 mutant Ile108RT in MT4 cells. The experiment can be described thus: Anti-HIV assay on MT4 cells, Ile108RT mutant.
Description: as §4, §5, §6, §7, §8

Experiment [10] relates to HIV-1 mutant Asn103/Ile108RT in MT4 cells. The experiment can be described thus: Anti-HIV assay on MT4 cells, Asn103/Ile108RT double mutant.
Description: as §4, §5, §6, §7, §8

Experiment [11] has as its system HIV-1 with WT (wild type) RT in MT4 cells. The experiment can be described thus: Anti-HIV assay on MT4 cell line, WT RT. The protocol: as §1, §5, §6, §7, §8
The mark [12] stands for this setting: MT4, mutant Ile108RT, read-out: EC50 Ile108RT MT4.
Where [13] appears, read: Human immunodeficiency virus 1, TZM-bl.
Setting [14] is: Human immunodeficiency virus 1, MT4, read-out: EC50 Ile100RT MT4.
Setting [15] is: Human immunodeficiency virus 1, MT4, read-out: EC50 Asn103RT MT4.
[16] abbreviates: Human immunodeficiency virus 1, MT4, read-out: EC50 Ile108RT MT4.
[17] abbreviates: MT4, double mutant Asn103/Ile108RT.
Where [18] appears, read: Human immunodeficiency virus 1, MT4, read-out: EC50 Cys181RT MT4.
Where [19] appears, read: Human immunodeficiency virus 1, MT4, read-out: EC50 Asn103/Ile108RT MT4.

Consider `CCc1c(C)[nH]c(=O)c(CN=[N+]=[N-])c1OC1CC(C)CC(C)C1` (centres unmarked) [Z153], for which the EC50 is under 1 nM in experiment [1]; 83 nM in [2] (TZM-bl, mutant Cys181RT); 780 nM in [3] (MT4, mutant Cys181RT, read-out: EC50 Cys181RT MT4); 29 nM in experiment [4] (TZM-bl, mutant Ile100RT); 187 nM in experiment [5] (MT4, mutant Ile100RT, read-out: EC50 Ile100RT MT4); 42 nM in experiment [6] (TZM-bl, mutant Asn103RT). For the same molecule, the EC50 in experiment [7] (MT4, mutant Asn103RT, read-out: EC50 Asn103RT MT4) was 150 nM; in experiment [8] (TZM-bl, mutant Ile108RT), 1 nM; in experiment [9] (setting [12]), 8 nM; in [10] (MT4, double mutant Asn103/Ile108RT, read-out: EC50 Asn103/Ile108RT MT4), 3480 nM.

For `Cc1ccnc2c1NC(=O)c1cccnc1N2C1CC1` [Nevirapine, reference compound], the EC50 turned out to be 56 nM in experiment [1] (Human immunodeficiency virus 1); 575 nM in [11] (Human immunodeficiency virus 1); 8300 nM in [2] (setting [13]); 50 nM in experiment [4] (setting [13]); 2060 nM in [5] (setting [14]); 2100 nM in [6] (setting [13]). In addition, the EC50 in experiment [7] (setting [15]) was over 25000 nM; in experiment [8] (setting [13]) it was 91 nM; in [9] (setting [16]), 1270 nM. Also, the “EC50 Cys181RT MT4” value in [3] (MT4, mutant Cys181RT) is recorded as “Inactive”. The “EC50 Asn103/Ile108RT MT4” value in experiment [10] (setting [17]) was “inactive”.

Take `CCOC(=O)c1c(OC2CC(C)CC(C)C2)c(CC)c(C)[nH]c1=O` (single isomer, unassigned) [Z37inv]: the EC50 in experiment [1] worked out at 439 nM; in [2] (TZM-bl, mutant Cys181RT), 2540 nM; in experiment [8] (TZM-bl, mutant Ile108RT) it was 1090 nM.

For the molecule `CCc1c(C)[nH]c(=O)c(CO)c1OC1CC(C)CC(C)C1` (centres unmarked) [Z45inv], the EC50 in experiment [1] was determined as 197 nM; in experiment [2] (TZM-bl, mutant Cys181RT), 3200 nM; in [4] (TZM-bl, mutant Ile100RT), 382 nM.

Consider `CCc1c(C)[nH]c(=O)c([N+](=O)[O-])c1OC1CC(C)CC(C)C1` (centres unmarked) [Z91inv, 3-nitro-5-ethyl-6-methyl-4-[(3,5-dimethylcyclohexyl)oxy]pyridine-2(1H)-one], for which the EC50 was under 1 nM in experiment [1] (Human immunodeficiency virus 1); under 1 nM in experiment [11] (Human immunodeficiency virus 1); 58 nM in experiment [2] (setting [13]); 2440 nM in experiment [3] (setting [18]); 2 nM in [4] (setting [13]); 1380 nM in experiment [5] (setting [14]). In addition, the EC50 is 355 nM in experiment [6] (setting [13]); 980 nM in [7] (setting [15]); under 1 nM in experiment [8] (setting [13]); 72 nM in [9] (setting [16]); 9900 nM in experiment [10] (setting [19]).

For `CCc1c(C)[nH]c(=O)c(C)c1OC1CC(C)CC(C)C1` (centres unmarked) [Z154], the EC50 in experiment [1] was 3 nM; in experiment [11], under 1 nM; in [2] (TZM-bl, mutant Cys181RT) it was 288 nM; in [4] (TZM-bl, mutant Ile100RT) it was 40 nM; in [6] (TZM-bl, mutant Asn103RT) it was 29 nM; in experiment [8] (TZM-bl, mutant Ile108RT), 14 nM.

Take `O=C1Nc2ccc(Cl)cc2[C@@](C#CC2CC2)(C(F)(F)F)O1` [Efavirenz, reference compound]: the EC50 is under 1 nM in experiment [1] (Human immunodeficiency virus 1); under 1 nM in experiment [11] (Human immunodeficiency virus 1); under 1 nM in [2] (setting [13]); under 1 nM in experiment [3] (setting [18]); 17 nM in [4] (setting [13]); 178 nM in [5] (setting [14]). For the same molecule, the EC50 was 35 nM in experiment [6] (setting [13]); 5 nM in experiment [7] (setting [15]); under 6 nM in experiment [8] (setting [13]); under 1 nM in experiment [9] (setting [16]); 1190 nM in [10] (setting [19]).

Consider `CCc1c(C)[nH]c(=O)c(CSC(C)=O)c1OC1CC(C)CC(C)C1` (centres unmarked) [Z114], for which the EC50 came to 11 nM in experiment [1]; 136 nM in experiment [11]; 411 nM in experiment [2] (TZM-bl, mutant Cys181RT); 77 nM in experiment [4] (TZM-bl, mutant Ile100RT); 584 nM in [6] (TZM-bl, mutant Asn103RT); 12 nM in experiment [8] (TZM-bl, mutant Ile108RT). In [9] (setting [12]), the EC50 worked out at 12000 nM. Also, the “EC50 Cys181RT MT4” value in [3] (MT4, mutant Cys181RT) is on record as “Inactive”. In experiment [5] (MT4, mutant Ile100RT), the “EC50 Ile100RT MT4” value is recorded as “Inactive”. Also, the “EC50 Asn103RT MT4” value in [7] (MT4, mutant Asn103RT) was “inactive”. For the same molecule, in [10] (setting [17]), the “EC50 Asn103/Ile108RT MT4” value is “inactive”.

`CCc1c(C)[nH]c(=O)c(N(C)C)c1OC1CC(C)CC(C)C1` (centres unmarked) [Z150, 3-(dimethylamino)-5-ethyl-6-methyl-4-[(3,5-dimethylcyclohexyl)oxy]pyridine-2(1H)-one]: the EC50 in experiment [1] (Human immunodeficiency virus 1) is under 1 nM; in experiment [11] (Human immunodeficiency virus 1), under 1 nM; in experiment [2] (setting [13]) it was 86 nM; in experiment [3] (setting [18]), 320 nM; in experiment [4] (setting [13]), 20 nM; in [5] (setting [14]), 87 nM. For the same molecule, the EC50 is 11 nM in experiment [6] (setting [13]); under 1 nM in experiment [7] (setting [15]); 4 nM in [8] (setting [13]); under 1 nM in experiment [9] (setting [16]); 958 nM in experiment [10] (setting [19]).
